Assay results reported in patent US11866416B2, “Streptococcus mutans glucosyl transferase inhibitors for dental caries therapy” (UAB Research Foundation, priority 2018, dated 2024).
Values after ≈ are worked out from the molar mass of the structure shown. Read-outs that look alike come from different tables or passages of the source. Marks after values point to notes of the source that are not given here.

Tests used:
S. mutans biofilm = S. mutans biofilm formation and inhibition assay (96-well plates, crystal violet); assay type: cell-based, Streptococcus mutans
Method: Biofilm assays using 96-well flat-bottom polystyrene microtiter plates were performed to evaluate S. mutans biofilm formation at various conditions as described (Liu et al. (2011) Antimicrobial Agents and Chemotherapy 55, 2679; Zhang et al. (2015) International Journal of Antimicrobial Agents 46, 174), the disclosures of which are incorporated herein by reference in their entirety). Each assay was replicated three times. Compounds that inhibited biofilm formation at minimum concentration (MBIC) were determined by serial dilutions.
S. mutans biofilm formation and inhibition assays. […] Each assay was replicated three times. Minimum biofilm inhibitory concentration (MBIC) of compounds was determined by serial dilutions.
S. mutans biofilm formation and inhibition assays. Biofilm assays using 96-well flat-bottom polystyrene microtiter plates were performed to evaluate S. mutans biofilm formation at various conditions as described. Each assay was replicated […]. Compounds that inhibited 50% biofilm formation were determined by serial dilutions.
S. mutans biofilm formation and inhibition assays. A well-established protocol to study S. mutans biofilm formation in 96-well flat-bottom polystyrene microtiter plates was used, in triplicate (Mattos-Graner, R. O.; Napimoga, M. H.; Fukushima, K.; Duncan, M. J.; Smith, D. J., Comparative analysis of Gtf isozyme production and diversity in isolates of Streptococcus mutans with different biofilm growth phenotypes. Journal of clinical microbiology 2004, 42 (10), 4586-4592). The stock solutions were made up in 100% DMSO, and final concentration of DMSO used in the assays was 1%. Minimum biofilm inhibitory concentration (MBIC) of compounds was determined by serial dilutions.

S. mutans = assay: microbe, parasite or virus in culture; assay type: cell-based, Streptococcus mutans; settings: for Selectivity: growth versus biofilm
Method: Cell viability of S. mutans, S. gordonii, S. sanguinis, Aggregatibacter actinomycetemcomitans and Actinomyces. […] The number of colony-forming units (CFU) per milliliter of each sample treated with selected compounds at different concentrations was enumerated after incubation for 24 h at 37° C. and compared to the values obtained from the DMSO control group. Overnight broth cultures were transferred by 1:50 dilutions into fresh THB medium and were allowed to grow until mid-exponential phase (OD470 nm 0.6) before transfer to 96-well plates containing desired concentration of the compound. After 16 h incubation, bacterial growth was measured at OD470, and normalized to the DMSO control (100%).
Cell viability of S. mutans and commensal S. gordonii and S. sanguinis. Effects of lead small molecules on cell viability were examined. The number of colony-forming units (CFU) per milliliter for each compound at different concentrations was determined after incubation for 24 h at 37° C. and compared to the values obtained from the DMSO control group.
Cell viability of S. mutans and commensal S. gordonii and S. sanguinis. […] DMSO served as a control group and provided a relative comparison for the number of colony-forming units (CFU) per milliliter for each compound at different concentrations was determined after incubation for 24 h at 37° C. The final concentration of DMSO used in the assays was 1%.

[1] = Streptococcus mutans, Table 2, read-out: Biofilm Inhibition IC50
[2] = Streptococcus mutans, Table 2, >300 = no inhibition up to 300 μM, read-out: Growth Inhibition MIC50
[3] = Streptococcus mutans, Table 4, stilbenes, NI = no inhibition, read-out: Biofilm IC50
[4] = Streptococcus mutans, Table 8, stilbenes, NI = no inhibition, read-out: Biofilm IC50
[5] = Streptococcus mutans, Table 4, stilbenes, average of at least 5 measurements, NI = no inhibition, read-out: Growth MIC50
[6] = Table 8, stilbenes, average of at least 5 measurements, NI = no inhibition
[7] = Streptococcus mutans, Table 3, read-out: Biofilm Inhibition IC50
[8] = Streptococcus mutans, Table 3, >300 = no inhibition up to 300 μM, NI = no inhibition up to 400 μM, read-out: Growth Inhibition MIC50

IC50 (S. mutans biofilm; [1]) [µM]	MIC50 (S. mutans; [2]) [µM]	IC50 (S. mutans biofilm; [7]) [µM]	MIC50 (S. mutans; [8]) [µM]	Compound	other results
65.1	> 300			NC(=O)c1ccccc1NC(=O)c1ccc2ncoc2c1 [HW-1-179]	
		320 ± 21	> 300	O=C1/C(=C/c2ccccc2)Oc2ccccc21 [LC-I-206]	
		64 ± 7	534 ± 17 (≈ 154 µg/mL)	O=C(/C=C/c1ccc(O)c(O)c1)c1ccc(O)c(O)c1O [Okanin (natural), Okanin]	
		135 ± 5.6	262 ± 21	Oc1cc(O)c2cc(O)c(-c3cc(O)c(O)c(O)c3)[o+]c2c1 [PBF]	
12.8	> 300			CN(C)c1ncc(/C=C/C(=O)Nc2ccccc2C(N)=O)cn1 [SN-I-271S]	
102	> 300			NC(=O)c1ccccc1C(=O)Nc1cnc2ccccc2c1 [SN-I-285]	
250	> 300			[N-]=[N+]=Nc1ccc(NC(=O)c2cc3cc([N+](=O)[O-])ccc3s2)cc1 [SN-I-287]	
57.2	> 300			[N-]=[N+]=Nc1ccc2sc(C(=O)Nc3ccccc3C(N)=O)cc2c1 [SN-II-14]	
		101 ± 3	231 ± 12 (≈ 79.4 µg/mL)	COc1ccc(/C=C/C(=O)c2ccc(OC)c(OC)c2O)c(OC)c1 [SN-II-24-B6]	
		250 ± 16	327 ± 24 (≈ 83.8 µg/mL)	O=C(/C=C/c1ccc(O)cc1O)c1ccccc1O [SN-II-32]	
		19.8 ± 2	63.1 ± 4 (≈ 18.1 µg/mL)	O=c1c(O)c(-c2cc(O)c(O)cc2O)oc2ccccc12 [SN-II-92]	
		10.2 ± 2	157 ± 13 (≈ 42.3 µg/mL)	O=C1/C(=C/c2cc(O)c(O)cc2O)Oc2ccccc21 [SN-II-110]	
		213 ± 7	> 300	O=C(/C=C/c1ccc(O)cc1)c1ccccc1O [SN-II-113]	
		133 ± 24	153 ± 21 (≈ 41 µg/mL)	COc1cc(O)ccc1/C=C1\Oc2ccccc2C1=O [SN-II-115]	
		280 ± 35	263 ± 14 (≈ 66.8 µg/mL)	O=C1/C(=C/c2ccc(O)c(O)c2)Oc2ccccc21 [SN-II-118]	

More lines, now with the values behind:

Compound	IC50 (S. mutans biofilm; [1]) [µM]	MIC50 (S. mutans; [2]) [µM]	IC50 (S. mutans biofilm; [7]) [µM]	MIC50 (S. mutans; [8]) [µM]	other results
NC(=O)c1cccc(NC(=O)c2cc3cc([N+](=O)[O-])ccc3[nH]2)c1 [Compound 298b2]	138	> 300			
Oc1ccc(/C=C/c2ccc(O)cc2)cc1 [Entry 4]					IC50 (S. mutans biofilm; [3]): 344 ± 17 µM; IC50 (S. mutans biofilm; [4]): 344 ± 17 µM; MIC50 (S. mutans; [5]): 854 ± 58 µM (≈ 181 µg/mL); Selectivity (S. mutans; Table 4, stilbenes): 2.4; Growth MIC50 (S. mutans; [6]): 854 ± 58 µM; Selectivity (S. mutans; Table 8, stilbenes): 2.4
N=C(N)c1ccc(/C=C/c2ccc(C(=N)N)cc2O)cc1 [Entry 5]					IC50 (S. mutans biofilm; [3]): 104 ± 7 µM; IC50 (S. mutans biofilm; [4]): 104 ± 7 µM; MIC50 (S. mutans; [5]): 179 ± 23 µM (≈ 50.2 µg/mL); Growth MIC50 (S. mutans; [6]): 179 ± 23 µM
COc1cc(O)cc(/C=C/c2ccccc2)c1 [Entry 6]					IC50 (S. mutans biofilm; [3]): 477 ± 51 µM; IC50 (S. mutans biofilm; [4]): 477 ± 51 µM; MIC50 (S. mutans; [5]): 546 ± 25 µM (≈ 124 µg/mL); Selectivity (S. mutans; Table 4, stilbenes): 1.1; Growth MIC50 (S. mutans; [6]): 546 ± 25 µM; Selectivity (S. mutans; Table 8, stilbenes): 1.1
COc1cc(/C=C/c2ccc(OC)c(O)c2)cc(OC)c1 [Entry 9]					IC50 (S. mutans biofilm; [3]): 122 ± 11 µM; IC50 (S. mutans biofilm; [4]): 122 ± 11 µM; MIC50 (S. mutans; [5]): 137 ± 6 µM (≈ 39.2 µg/mL); Selectivity (S. mutans; Table 4, stilbenes): 1.1; Growth MIC50 (S. mutans; [6]): 137 ± 6 µM; Selectivity (S. mutans; Table 8, stilbenes): 1.1
O=C(/C=C/c1ccc(O)c(O)c1)O[C@@H]1C[C@](O)(C(=O)O)C[C@@H](O)[C@H]1O [Entry 10]					IC50 (S. mutans biofilm; [3]): 518 ± 85 µM; IC50 (S. mutans biofilm; [4]): 518 ± 85 µM; MIC50 (S. mutans; [5]): 1720 ± 53 µM (≈ 611 µg/mL); Selectivity (S. mutans; Table 4, stilbenes): 3.3; Growth MIC50 (S. mutans; [6]): 1724 ± 53 µM; Selectivity (S. mutans; Table 8, stilbenes): 3.3
C[n+]1ccc(/C=C/c2ccc(O)c(O)c2)c2ccccc21 [Entry 11]					IC50 (S. mutans biofilm; [3]): 104 ± 6 µM; IC50 (S. mutans biofilm; [4]): 104 ± 6 µM; MIC50 (S. mutans; [5]): > 400 µM; Selectivity (S. mutans; Table 4, stilbenes): 4.0; MIC50 (S. mutans; Table 8, stilbenes, average of at least 5 measurements, NI = no inhibition, read-out: Growth MIC50): >400 µM; Selectivity (S. mutans; Table 8, stilbenes): 4.0
COc1ccc(/C=C/c2cc(O)cc(O[C@@H]3O[C@H](CO)[C@@H](O)[C@H](O)[C@H]3O)c2)cc1O [Entry 12]					IC50 (S. mutans biofilm; [3]): 106 ± 11 µM; IC50 (S. mutans biofilm; [4]): 106 ± 11 µM; MIC50 (S. mutans; [5]): 134 ± 11 µM (≈ 56.3 µg/mL); Selectivity (S. mutans; Table 4, stilbenes): 1.2; Growth MIC50 (S. mutans; [6]): 134 ± 11 µM; Selectivity (S. mutans; Table 8, stilbenes): 1.2
COc1ccc(/C=C2\Oc3ccccc3C2=O)cc1OC [LC-I-197]			8.4 ± 1	37.1 ± 6 (≈ 10.5 µg/mL)	
COc1ccc(/C=C2\Oc3ccccc3C2=O)c(OC)c1 [LC-I-203]			40.6 ± 3	> 300	
COc1cc(OC)c(OC)cc1/C=C1\Oc2ccccc2C1=O [LC-I-205]			8.3 ± 1	> 300	
COc1cc(-c2[o+]c3cc(O)cc(O)c3cc2O)cc(O)c1O [PAC]			61.2 ± 2.3	274 ± 45.8	
O=C(/C=C/c1ccc(O)cc1O)c1cccc(O)c1 [RZ-1-86]			32 ± 5	469 ± 16 (≈ 120 µg/mL)	
O=C(/C=C/c1ccc(O)c(O)c1)c1ccccc1O [RZ-1-90]			356 ± 14	> 300	
NC(=O)c1ccccc1NC(=O)c1ccc2ncsc2c1 [SN-I-271U]	36.1	> 300			
O=C(O)c1ccc(NC(=O)c2cc3cc([N+](=O)[O-])ccc3s2)cc1 [SN-I-272OH]	15.6	> 300			
O=C(O)c1ccc(NC(=O)c2cc3ccccc3s2)cc1 [SN-I-272VH]	180	> 300			
[N-]=[N+]=Nc1ccc(C(=O)Nc2ccccc2C(N)=O)cc1 [SN-I-288]	212	> 300			
O=C(/C=C/c1ccc(O)cc1O)c1ccc(O)cc1 [SN-II-49C]			77 ± 8	782 ± 96 (≈ 200 µg/mL)	
NC(=O)c1cc(NC(=O)c2cc3cc([N+](=O)[O-])ccc3s2)cc(C(N)=O)c1 [SN-II-50]	4.6	> 300			
NC(=O)c1cc(NC(=O)c2cc3cc([N+](=O)[O-])ccc3s2)ccc1[N+](=O)[O-] [SN-II-59]	23.4	> 300			
O=c1c(O)c(-c2ccc(O)cc2O)oc2ccccc12 [SN-II-79]			65.9 ± 1	30 ± 1 (≈ 8.11 µg/mL)	
Cl.NC(=O)c1ccccc1NC(=O)c1cc2cc(N)ccc2s1 [SN-II-81Cl]	9.6				Growth Inhibition MIC50 (S. mutans; Table 2, >300 = no inhibition up to 300 μM): >300^b μM
NC(=O)c1ccccc1NC(=O)c1cc2cc(N)ccc2s1 [SN-II-81F]		> 300			IC50 (S. mutans biofilm; Table 2, read-out: Biofilm Inhibition IC50): 56.4 µM
COC(=O)c1cccc(NC(=O)c2cc3cc(N)ccc3o2)c1 [SN-II-105]	5.5	347 (≈ 108 µg/mL)			
COC(=O)c1cccc(NC(=O)c2cc3cc(N/C(=N\C(=O)OC(C)(C)C)NC(=O)OC(C)(C)C)ccc3o2)c1 [SN-II-106]	14	29 (≈ 16 µg/mL)			
COC(=O)c1cccc(NC(=O)c2cc3cc(NC(=N)N)ccc3o2)c1 [SN-II-107]	16.6	45.9 (≈ 16.2 µg/mL)			
